# Measured values published in ChEMBL document CHEMBL1201862, “PubChem BioAssay data set” (2004).
#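 These data come from cells grown in 96-well plates and exposed to compound for 48 hours at five concentrations. The concentration for 50% growth inhibition is given as GI50.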 Activity calls are given as the source filed them. Rule as the data show it: active = GI50 up to about 1.1 µM and inactive = higher.
# Experiments:
# Assay in all cases: NCI anticancer screen, dose series, 48 h
# OVCAR-8 = test system: OVCAR-8
# SF-268 = test system: SF-268
# UO-31 = test system: UO-31
# NCI-H23 = test system: NCI-H23
# HCC 2998 = test system: HCC 2998
# LXFL 529 = test system: LXFL 529
# LOX IMVI = test system: LOX IMVI
# RXF 393 = test system: RXF 393
# TK-10 = test system: TK-10
# ACHN = test system: ACHN
# KM-20L2 = test system: KM-20L2
# HCT-15 = test system: HCT-15
# SN12C = test system: SN12C
# U-251 = test system: U-251
# HT-29 = test system: HT-29
# SK-MEL-5 = test system: SK-MEL-5
# SR = test system: SR
# SW-620 = test system: SW-620
# OVCAR-5 = test system: OVCAR-5
# SK-OV-3 = test system: SK-OV-3
# NCI-H522 = test system: NCI-H522
# HOP-62 = test system: HOP-62
# EKVX = test system: EKVX
# NCI-H226 = test system: NCI-H226
# SNB-75 = test system: SNB-75
# A498 = test system: A498
# COLO 205 = test system: COLO 205
# HOP-18 = test system: HOP-18
# KM12 = test system: KM12
# DMS-273 = test system: DMS-273
# OVCAR-4 = test system: OVCAR-4
# SK-MEL-2 = test system: SK-MEL-2
# HL-60 = test system: HL-60
# UACC-62 = test system: UACC-62
# M14 = test system: M14
# SF-295 = test system: SF-295
# A549 = test system: A549
# CCRF-CEM = test system: CCRF-CEM
# IGROV-1 = test system: IGROV-1
# CAKI-1 = test system: CAKI-1
# NCI-H460 = test system: NCI-H460
# 786-0 = test system: 786-0
# M19-MEL = test system: M19-MEL
# K562 = test system: K562
# UACC-257 = test system: UACC-257
# Malme-3M = test system: Malme-3M
# XF498 = test system: XF498
# DLD-1 = test system: DLD-1
# RPMI-8226 = test system: RPMI-8226
# SF-539 = test system: SF-539
# MOLT-4 = test system: MOLT-4
# SK-MEL-28 = test system: SK-MEL-28
# HCT-116 = test system: HCT-116
# SNB-78 = test system: SNB-78
# SNB-19 = test system: SNB-19
# HOP-92 = test system: HOP-92
# OVCAR-3 = test system: OVCAR-3
structure (smiles),measurement,setting,value
CC1=C2C(=O)C(C)(C)C=C2C(=O)[C@](C)(O)C12CC2 [DEHYDROILLUDIN M],GI50,OVCAR-8,560 nM (active)
same,GI50,SF-268,521 nM (active)
same,GI50,UO-31,> 1000 nM (active)
same,GI50,NCI-H23,499 nM (active)
same,GI50,HCC 2998,> 815 nM (active)
same,GI50,LXFL 529,698 nM (active)
same,GI50,LOX IMVI,402 nM (active)
same,GI50,RXF 393,593 nM (active)
same,GI50,TK-10,> 1000 nM (active)
same,GI50,ACHN,552 nM (active)
same,GI50,KM-20L2,527 nM (active)
same,GI50,HCT-15,468 nM
same,GI50,SN12C,> 1000 nM (active)
same,GI50,U-251,484 nM (active)
same,GI50,HT-29,248 nM (active)
same,GI50,SK-MEL-5,296 nM (active)
same,GI50,SR,610 nM (active)
same,GI50,SW-620,> 1000 nM (active)
same,GI50,OVCAR-5,> 1000 nM (active)
same,GI50,SK-OV-3,> 1000 nM (active)
same,GI50,NCI-H522,245 nM (active)
same,GI50,HOP-62,> 1000 nM (active)
same,GI50,EKVX,> 1000 nM (active)
same,GI50,NCI-H226,> 1000 nM (active)
same,GI50,SNB-75,> 1000 nM (active)
same,GI50,A498,> 1000 nM (active)
same,GI50,COLO 205,> 1000 nM (active)
same,GI50,HOP-18,> 1000 nM (active)
same,GI50,KM12,> 935 nM (active)
same,GI50,DMS-273,282 nM (active)
same,GI50,OVCAR-4,766 nM (active)
same,GI50,SK-MEL-2,614 nM (active)
same,GI50,HL-60,247 nM (active)
same,GI50,UACC-62,586 nM (active)
same,GI50,M14,678 nM (active)
same,GI50,SF-295,585 nM (active)
same,GI50,A549,> 1000 nM (active)
same,GI50,CCRF-CEM,> 1000 nM (active)
same,GI50,IGROV-1,> 1000 nM (active)
same,GI50,CAKI-1,> 1000 nM (active)
same,GI50,NCI-H460,230 nM (active)
same,GI50,786-0,537 nM (active)
same,GI50,M19-MEL,> 953 nM (active)
same,GI50,K562,> 1000 nM (active)
same,GI50,UACC-257,745 nM (active)
same,GI50,Malme-3M,634 nM (active)
same,GI50,XF498,664 nM (active)
same,GI50,DLD-1,> 791 nM (active)
same,GI50,RPMI-8226,> 1000 nM (active)
same,GI50,SF-539,> 1000 nM (active)
same,GI50,MOLT-4,> 1000 nM (active)
same,GI50,SK-MEL-28,> 1000 nM (active)
same,GI50,HCT-116,265 nM (active)
same,GI50,SNB-78,522 nM (active)
same,GI50,SNB-19,> 1000 nM (active)
same,GI50,HOP-92,> 1000 nM (active)
same,GI50,OVCAR-3,> 1000 nM (active)
